Experimental data published in patent EP3150201B1, “COMPOSITE PREPARATION COMPRISING 5- -REDUCTASE INHIBITOR-CONTAINING FILM COATING LAYER, AND METHOD FOR PRODUCING THE COMPOSITE PREPARATION” (Hanmi Pharm. Co., Ltd., priority 2014, dated 2016).

Tests used:
[1] = Crystalline form analysis of dried film by X-ray diffractometry (Test Example 4); format: physicochemical; conditions: raw material powder or dried film from the film coating solution
Method: Each film coating solution prepared in Examples 2 and 7 and Comparative Example 2 was sprayed on a Petri dish and dried to form a film. These films were collected, and crystalline forms thereof were analyzed using an X-ray diffractometer (D8 Advance, Bruker) with Cu X-ray radiation at a voltage of 40 kV, at a current of 100 mA, and with a scan rate of 3 deg/min. The results of the X-ray diffractometry of finasteride powder as a raw material, and the dried films prepared using the film coating solutions of Examples 2 and 7 and Comparative Example 2 are shown in FIG. 5.

[2] = Solubility test of finasteride and coating materials (visual observation); format: physicochemical; conditions: organic solvent-water mixture solvents of Comparative Example 1, 2, 5, 6, and 7; visually observed
Method: Finasteride, Kollicoat® IR, povidone, and polyvinyl alcohol were added to the organic solvent-water mixture solvents in a variety of ratios presented in Tables 1 to 4, and it was visually observed whether finasteride, Kollicoat® IR, povidone, and polyvinyl alcohol were soluble or not in each of the organic solvent-water mixture solvents.

CC(C)(C)NC(=O)[C@H]1CC[C@H]2[C@@H]3CC[C@H]4NC(=O)C=C[C@]4(C)[C@H]3CC[C@]12C [Finasteride, finasteride]
crystalline form [1]: crystalline | soluble or not [2]: insoluble
